The series is described as follows: method code SF-HPLC, from DOI: 10.1081/jlc-100101463. The note with it: pH 12.0.
Regarding `CC(=O)c1cccc(OCC2CN=C(N)O2)c1` (stereo not drawn), the logD was found to be 1.31. As for `NC1=NCC(CN2CCC(C(=O)c3ccccc3)CC2)O1` (stereo not drawn), the figure is 1.05. Next, `NC1=NCC(CN2CC=CCC2)O1` (stereo not drawn): 0.19; `NC1=NCC(CN2CCC(c3ccccc3)CC2)O1` (stereo not drawn): 1.96; `CC1CCCC(C)N1CC1CN=C(N)O1` (stereo not drawn): 0.94. Next, `Cc1cc(C)cc(OCC2CN=C(N)O2)c1` (stereo not drawn): 2.24; `CC(C)N(CC1CN=C(N)O1)C(C)C` (stereo not drawn): 0.98. In the case of `CC1CCCCN1CC1CN=C(N)O1` (stereo not drawn), the logD came to 0.73.

Regarding `NC1=NCC(CN2CCC(Cc3ccccc3)CC2)O1` (stereo not drawn), the logD came out at 2.38. On to `CC(C)(C)c1ccc(OCC2CN=C(N)O2)cc1` (stereo not drawn), for which the log distribution coefficient (logD) was determined as 2.87. Turning to `CC1CCN(CC2CN=C(N)O2)CC1` (stereo not drawn), the pH-dependent lipophilicity (logD) is 0.91. Next, `NC1=NCC(CN2CCOCC2)O1` (stereo not drawn): -0.22; `CC1CN(CC2CN=C(N)O2)CC(C)O1` (stereo not drawn): 0.16.

By logD is commonly meant the decadic logarithm of the distribution of all forms, ionised or not, between an organic phase and buffer at a given pH. The low end stands for lower lipophilicity, the high end for higher lipophilicity.

The values are drawn from the SangsterLogP compilation.
